Data: patent publication US9340573B2, “Azaindolines” (Hoffmann-La Roche Inc., priority 2012, dated 2016)
Where a name gives a salt, the structure may show the parent alone. Read-outs that look alike come from different tables or passages of the source.

Tests used:
BIR2 domain of XIAP = BIR2 domain of XIAP (Homo sapiens (Human), UniProt P98170, C202A/C213G); assay: TR-FRET assay for BIR2: inhibition of binding of the XIAP BIR2 domain to Peptide A (SMAC-derived peptide)
Procedure: (§1) TR-FRET Assay for BIR2 and BIR3
(§2) The ability of a test compound to inhibit the binding of BIR2 and/or BIR3 domains of the XIAP protein to Peptide A (a SMAC-derived peptide described below) evidences that the test compound acts as a SMAC-mimetic resulting in reactivation of a cell's apoptotic pathway.
(§3) The peptides were labeled with the fluorescent tags FITC or TAMRA and Kd values were determined by fluorescence polarization assay. […] The peptide sequence was derivatized with biotin to provide […]-(ε-biotin)-OH 1:2 TFA as the substrate for the TR-FRET assay.
The XIAP protein sequence was obtained from the SWISS-PROT protein sequence database and the BIR2 and BIR3 domains were derived from that. The sequence of the BIR2 domain used for the TR-FRET assay is […].
(§4) Ten nanomolar of 6× Histidine-tagged BIR2 domain, corresponding to amino acids 124-240 of XIAP, or BIR3 domain, corresponding to amino acids 241-356 of XIAP, was mixed with 20 nM of the peptide […]-(ε-biotin)-OH 1:2 TFA, in the presence of 50 mM Tris-Cl, pH 7.5, 100 mM NaCl, 1 mM dithiothreitol (DTT) and 0.1 mg/mL bovine serum albumin (BSA). Following a […] incubation at 37° C., Europium-Streptavidin and Allophycocyanin conjugated anti-Histidine antibody were added to a final concentration of 1.5 nM and 15 nM, respectively. Time-resolved fluorescence resonance energy transfer (TR-FRET) signals were measured 1 hour later at room temperature. Test compound potency was assessed at 10 serially diluted concentrations. Percentage of inhibition at each concentration was determined to generate an IC50 value for each test compound.

BIR3 domain of XIAP = BIR3 domain of XIAP (Homo sapiens (Human), UniProt P98170); assay: TR-FRET assay for BIR3: inhibition of binding of the XIAP BIR3 domain to Peptide A (SMAC-derived peptide)
Procedure: as §1, §2, §3
The sequence of the BIR3 domain used for the TR-FRET assay is […]
as §4

[1] = 6x His-tagged BIR2 domain (aa 124-240 of XIAP), 10 nM, 20 nM Peptide A, TR-FRET, read-out: Ic50 BIR2
[2] = 6x His-tagged BIR3 domain (aa 241-356 of XIAP), 10 nM, 20 nM Peptide A, TR-FRET, read-out: Ic50 BIR3

BIR2 domain of XIAP, sequence (P98170 other isoform, or with tags, fused parts or gaps, stated change not applied): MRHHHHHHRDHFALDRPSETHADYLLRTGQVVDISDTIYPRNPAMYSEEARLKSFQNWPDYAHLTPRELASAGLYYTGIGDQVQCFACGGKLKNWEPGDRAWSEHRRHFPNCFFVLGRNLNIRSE
BIR3 domain of XIAP, sequence (P98170 other isoform, or with tags, fused parts or gaps): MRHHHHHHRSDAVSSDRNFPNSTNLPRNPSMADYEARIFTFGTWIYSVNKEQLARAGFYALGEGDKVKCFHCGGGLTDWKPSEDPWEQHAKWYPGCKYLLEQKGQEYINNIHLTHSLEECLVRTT

Compound	IC50 (BIR2 domain of XIAP; [1]) [µM]	IC50 (BIR3 domain of XIAP; [2]) [µM]	other results
CN[C@@H](C)C(=O)N[C@H](C(=O)N1c2ncccc2C[C@H]1CNC(=O)N(C)C)C(C)C [Example 6, (S)-N-{(S)-1-[(S)-2-(3,3-Dimethyl-ureidomethyl)-2,3-dihydro-pyrrolo[2,3-b]pyridine-1-carbonyl]-2-methyl-propyl}-2-methylamino-propionamide hydrochloride]	6.17	> 54.8	
CN[C@@H](C)C(=O)N[C@H](C(=O)N1c2ncccc2CC1CNC(C)=O)C(C)C (stereo partly drawn) [Example 2, (S)-N-{(S)-1-[2-(Acetylamino-methyl)-2,3-dihydro-pyrrolo[2,3-b]pyridine-1-carbonyl]-2-methyl-propyl}-2-methylamino-propionamide hydrochloride]			IC50 (BIR2 domain of XIAP; read-out: Ic50 BIR2): 4.67 µM; IC50 (BIR3 domain of XIAP; read-out: Ic50 BIR3): > 54.8 µM
CN[C@@H](C)C(=O)N[C@H](C(=O)N1c2ncccc2C[C@H]1CNC(=O)C(C)c1ccccc1)C(C)C (stereo partly drawn) [Example 8, (S)-2-Methylamino-N-((S)-2-methyl-1-{(S)-2-[(2-phenyl-propionylamino)-methyl]-2,3-dihydro-pyrrolo[2,3-b]pyridine-1-carbonyl}-propyl)-propionamide hydrochloride]	2.56	> 54.8	
CNC(=O)NCC1Cc2cccnc2N1C(=O)[C@@H](NC(=O)[C@H](C)NC)C(C)C (stereo partly drawn) [Example 3, (S)-2-Methylamino-N-((S)-2-methyl-1-{2-[(3-methyl-ureido)-methyl]-2,3-dihydro-pyrrolo[2,3-b]pyridine-1-carbonyl}-propyl)-propionamide hydrochloride]	4.88	> 54.8	
CN[C@@H](C)C(=O)N[C@H](C(=O)N1c2ncccc2C[C@H]1CNS(C)(=O)=O)C(C)C [Example 9, (S)-N-{(S)-1-[(S)-2-(Methanesulfonylamino-methyl)-2,3-dihydro-pyrrolo[2,3-b]pyridine-1-carbonyl]-2-methyl-propyl}-2-methylamino-propionamide hydrochloride]	1.24	> 54.8	
CN[C@@H](C)C(=O)N[C@H](C(=O)N1c2ncccc2C[C@H]1CNC(=O)Oc1ccccc1)C(C)C [Example 12, {(S)-1-[(S)-3-Methyl-2-((S)-2-methylamino-propionylamino)-butyryl]-2,3-dihydro-1H-pyrrolo[2,3-b]pyridin-2-ylmethyl}-carbamic acid phenyl ester hydrochloride]			IC50 (BIR2 domain of XIAP): 1.62 µM; IC50 (BIR3 domain of XIAP): > 54.8 µM

Continued, in another order:

IC50 (BIR2 domain of XIAP; [1]) [µM]	IC50 (BIR3 domain of XIAP; [2]) [µM]	Compound	other results
0.888	53	CN[C@@H](C)C(=O)N[C@H](C(=O)N1c2ncccc2C[C@H]1CNC(=O)c1ccccc1)C(C)C [Example 1, N—{(S)-1-[(S)-3-Methyl-2-((S)-2-methylamino-propionylamino)-butyryl]-2,3-dihydro-1H-pyrrolo[2,3-b]pyridin-2-ylmethyl}-benzamide, hydrochloride]	
0.82	> 54.8	CN[C@@H](C)C(=O)N[C@H](C(=O)N1c2ncccc2C[C@H]1CNS(=O)(=O)c1ccccc1)C(C)C [Example 10, (S)-N-{(S)-1-[(S)-2-(Benzenesulfonylamino-methyl)-2,3-dihydro-pyrrolo[2,3-b]pyridine-1-carbonyl]-2-methyl-propyl}-2-methylamino-propionamide hydrochloride]	
1.54	> 54.8	CN[C@@H](C)C(=O)N[C@H](C(=O)N1c2ncccc2C[C@H]1CNC(=O)Nc1ccccc1)C(C)C [Example 7, (S)-2-Methylamino-N-((S)-2-methyl-1-{(S)-2-[(3-phenyl-ureido)-methyl]-2,3-dihydro-pyrrolo[2,3-b]pyridine-1-carbonyl}-propyl)-propionamide hydrochloride]	
1.57	> 54.8	CN[C@@H](C)C(=O)N[C@H](C(=O)N1c2ncccc2C[C@H]1CNC(=O)Cc1ccccc1)C(C)C [Example 4, (S)-2-Methylamino-N-{(S)-2-methyl-1-[(S)-2-(phenylacetylamino-methyl)-2,3-dihydro-pyrrolo[2,3-b]pyridine-1-carbonyl]-propyl}-propionamide hydrochloride]	
1.67	> 54.8	CN[C@@H](C)C(=O)N[C@H](C(=O)N1c2ncccc2C[C@H]1CNC(=O)OC)C(C)C [Example 5, {(S)-1-[(S)-3-Methyl-2-((S)-2-methylamino-propionylamino)-butyryl]-2,3-dihydro-1H-pyrrolo[2,3-b]pyridin-2-ylmethyl}-carbamic acid methyl ester hydrochloride]	
1.05	> 54.8	CN[C@@H](C)C(=O)N[C@H](C(=O)N1c2ncccc2C[C@H]1CNC(=O)OCc1ccccc1)C(C)C [Example 11, {(S)-1-[(S)-3-Methyl-2-((S)-2-methylamino-propionylamino)-butyryl]-2,3-dihydro-1H-pyrrolo[2,3-b]pyridin-2-ylmethyl}-carbamic acid benzyl ester]	
0.307	5.34	CN[C@@H](C)C(=O)N[C@H](C(=O)N1c2ncccc2C[C@H]1CNc1ccccc1)C(C)C [Example 13, (S)-2-Methylamino-N—[(S)-2-methyl-1-((S)-2-phenylaminomethyl-2,3-dihydro-pyrrolo[2,3-b]pyridine-1-carbonyl)-propyl]-propionamide, hydrochloride]	
0.506	3.95	CN[C@@H](C)C(=O)N[C@H](C(=O)N1c2ncccc2C[C@H]1CNc1ccc2ccccc2c1)C(C)C [Example 14, (S)-2-methylamino-N—{(S)-2-methyl-1-[(S)-2-(naphthalen-2-ylaminomethyl)-2,3-dihydro-pyrrolo[2,3-b]pyridine-1-carbonyl]-propyl}-propionamide hydrochloride]	
